According to patent US12127557B2:
Like-named read-outs stand apart in the source and are kept apart here.

Columns and labels:
Pythium ultimum = assay type: cell-based; conditions: no enzyme, 2 days
Fusarium graminearum = assay type: cell-based; conditions: no enzyme, 5 days

Substance: mancozeb
- Reduction in P. ultimum growth (−) enzyme (Pythium ultimum; mancozeb 0.5 mg/l): 2% f
- Reduction in P. ultimum growth (−) enzyme (Pythium ultimum; mancozeb 2 mg/l): 10% e
- Reduction in P. ultimum growth (−) enzyme (Pythium ultimum; mancozeb 5 mg/l): 16% e
- Reduction in P. ultimum growth (−) enzyme (Pythium ultimum; mancozeb 10 mg/l): 23% d
- Reduction in F. graminearum growth (−) enzyme (Fusarium graminearum; mancozeb 0.5 mg/l): 6% cd
- Reduction in F. graminearum growth (−) enzyme (Fusarium graminearum; mancozeb 2 mg/l): 1% d
- Reduction in F. graminearum growth (−) enzyme (Fusarium graminearum; mancozeb 5 mg/l): 17% cd
- Reduction in F. graminearum growth (−) enzyme (Fusarium graminearum; mancozeb 10 mg/l): 26% bcd
